# Biological target: human TRPA1 (Homo sapiens (Human), UniProt O75762)
# Test: Measurement of TRPA1 antagonist activity (1): intracellular calcium increase
# Format: cell-based
# Conditions: 293T cells transfected with human TRPA1 expression plasmid; allylisothiocyanate 20 μM stimulation; intracellular calcium fluorescence; read-out: hTRPA1 IC50
# Text: Measurement of TRPA1 Antagonist Activity (1)
# Human TRPA1 Expression Plasmid
# As cDNA encoding human TRPA1 (GenBank accession No. […]), a commercially available product was purchased (manufactured by Kazusa DNA Research Institute, clone No.: pFN21AB7348, item No.: FHC07217). Using this as a template, full-length human TRPA1 gene was amplified using the primer sequences shown below, by reaction using DNA polymerase (manufactured by Stratagene, trade name: PfuUltra High-Fidelity DNA Polymerase).
# A recognition site (underlined) of restriction enzyme HindIII was added to the 5′ side, and XbaI site (underlined) was added to the 3′ side, and GTT of the template sequence was changed to termination codon TAG (bold). The obtained double stranded DNA was enzyme-digested with HindIII and XbaI, and introduced into the multicloning site of expression plasmid pcDNA3.1/zeo(+) (manufactured by Invitrogen) to construct a human TRPA1 expression plasmid.
# Human embryonic kidney-derived 293T cells were cultured in Dulbecco's Modified Eagle Medium containing 10% fetal bovine serum, 10 unit penicillin, and 10 μg streptomycin, plated on a petri dish having a diameter of 10 cm at 3×10^6 cells, and cultured for 24 hr in a CO2 incubator. A reduced serum medium (manufactured by Invitrogen, trade name: OPTI-MEM, 600 μL), a gene transfer reagent (manufactured by Mirus Bio, trade name: Mirus TransIT-293, 18 μL), and human TRPA1 expression plasmid (6 μg) were mixed, the total amount of the mixture was added to the cells on the petri dish to allow for gene transfer. The cells were recovered about for 8 hr later, plated on a poly-D-lysine coated 384 well black/clear bottom plate at 12,000 cells/well, and cultured overnight.
# Measurement of Intracellular Calcium Increase
# The 384 well plate was recovered, and the medium was removed. A calcium-bonded fluorescent indicator (manufactured by Molecular Device, trade name: Calcium4 Assay Kit, 38 μL) dissolved in assay buffer (1×HBSS, 20 mM HEPES, pH 7.2) was added, and the cells were stained in a CO2 incubator for 1 hr. The cells were taken out at room temperature, stood for not less than 15 min, a test substance (10 μL) was added by a platereader FDSS7000 (Hamamatsu Photonics K.K.) equipped with a 384ch dispenser. After 10 min, allylisothiocyanate (12 μL) was further added at a final concentration of 20 μM, and changes in the relative fluorescence intensity after addition of allylisothiocyanate were measured for 5 min.
# Test Substance Preparation
# The test substance was dissolved in dimethyl sulfoxide and serially diluted with an assay buffer containing 0.1% bovine serum albumin (1×HBSS, 20 mM HEPES, pH 7.2) to a 4.8-fold concentration of the evaluation concentration. Allylisothiocyanate, which is a known TRPA1 activator, was dissolved in dimethyl sulfoxide to 100 mM, and further diluted 5-fold (100 μM) of the final concentration, like the test substance.
# Calculation of Antagonist Activity
# Under the test substance-free conditions, the maximum variation range of the fluorescence intensity before and after allylisothiocyanate stimulation was defined to be 100% activity rate, and the variation range before and after buffer stimulation was defined as 0% activity rate. The activity rate on addition of the test substance was determined, and the numerical value obtained by subtracting the activity rate from 100 was defined to be an inhibitory rate. IC50, which is the concentration of the test substance necessary for reaching the 50% inhibitory rate, was calculated from the sigmoid approximate curve by a spreadsheet software Excel-Fit.
# Chain of human TRPA1 (O75762 whole entry): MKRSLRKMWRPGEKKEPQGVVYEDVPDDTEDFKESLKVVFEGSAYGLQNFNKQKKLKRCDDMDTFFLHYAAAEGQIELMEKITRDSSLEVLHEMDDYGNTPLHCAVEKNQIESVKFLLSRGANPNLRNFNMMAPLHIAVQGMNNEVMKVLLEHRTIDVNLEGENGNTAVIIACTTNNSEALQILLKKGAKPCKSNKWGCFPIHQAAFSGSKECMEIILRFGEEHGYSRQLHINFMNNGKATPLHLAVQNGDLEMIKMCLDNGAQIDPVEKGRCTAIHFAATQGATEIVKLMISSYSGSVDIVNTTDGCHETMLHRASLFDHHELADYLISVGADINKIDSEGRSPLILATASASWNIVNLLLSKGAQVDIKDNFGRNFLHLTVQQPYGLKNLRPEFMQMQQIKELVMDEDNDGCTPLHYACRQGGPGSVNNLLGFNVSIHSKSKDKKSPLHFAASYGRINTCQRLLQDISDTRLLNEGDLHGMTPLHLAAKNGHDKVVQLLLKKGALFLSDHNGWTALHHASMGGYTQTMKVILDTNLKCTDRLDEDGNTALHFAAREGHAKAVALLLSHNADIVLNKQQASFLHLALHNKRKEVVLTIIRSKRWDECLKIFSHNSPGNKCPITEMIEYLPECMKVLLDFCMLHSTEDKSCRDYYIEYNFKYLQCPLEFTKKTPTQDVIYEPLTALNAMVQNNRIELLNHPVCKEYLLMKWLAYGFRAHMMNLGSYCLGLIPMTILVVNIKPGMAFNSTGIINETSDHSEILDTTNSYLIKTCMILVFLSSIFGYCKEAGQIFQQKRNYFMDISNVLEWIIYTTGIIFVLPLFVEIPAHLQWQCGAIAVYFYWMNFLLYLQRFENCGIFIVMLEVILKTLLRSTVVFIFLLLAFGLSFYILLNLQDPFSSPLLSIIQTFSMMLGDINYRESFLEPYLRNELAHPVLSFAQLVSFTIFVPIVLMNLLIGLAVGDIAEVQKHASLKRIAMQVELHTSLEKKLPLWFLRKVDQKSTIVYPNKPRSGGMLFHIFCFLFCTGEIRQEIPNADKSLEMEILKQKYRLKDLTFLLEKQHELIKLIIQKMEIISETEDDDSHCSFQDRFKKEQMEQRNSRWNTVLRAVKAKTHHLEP
row,Compound,IC50 [nM]
1,"C[C@H](NS(=O)(=O)c1cc2cc(F)ccc2o1)C(=O)NCc1cncc(-c2ccc(C(F)(F)F)cn2)c1 [Example 246, (2S)-2-[(5-fluorobenzofuran-2-yl)sulfonylamino]-N-[[5-[5-(trifluoromethyl)-2-pyridyl]-3-pyridyl]methyl]propanamide]",110
2,"O=C(NCc1cccc(OCc2ccccc2)c1)[C@@H]1CCCN1S(=O)(=O)c1cc2ccccc2o1 [Example 37, (2S)-1-(benzofuran-2-ylsulfonyl)-N-[(3-benzyloxyphenyl)methyl]pyrrolidine-2-carboxamide]",14
3,"O=C(NCc1cc(-c2ncc(C(F)(F)F)cn2)ccn1)[C@@H]1CCCN1S(=O)(=O)c1cc2ccccc2o1 [Example 192, (2S)-1-(benzofuran-2-ylsulfonyl)-N-[[4-[5-(trifluoromethyl)pyrimidin-2-yl]-2-pyridyl]methyl]pyrrolidine-2-carboxamide]",22
4,"Cc1ccc2oc(S(=O)(=O)N3CCC[C@H]3C(=O)NCc3cccc(-c4ccc(C(F)(F)F)nc4)c3)cc2c1 [Example 111, (2S)-1-(5-methylbenzofuran-2-yl)sulfonyl-N-[[3-[6-(trifluoromethyl)-3-pyridyl]phenyl]methyl]pyrrolidine-2-carboxamide]",130
5,"N#Cc1ccc(-c2cc(CNC(=O)[C@@H]3CCCN3S(=O)(=O)c3cc4ccccc4o3)ccn2)cc1F [Example 119, (2S)-1-(benzofuran-2-ylsulfonyl)-N-[[2-(4-cyano-3-fluoro-phenyl)-4-pyridyl]methyl]pyrrolidine-2-carboxamide]",12
6,"O=C(NC1(c2ccnc(-c3ccc(C(F)(F)F)cc3)c2)CC1)[C@@H]1CCCN1S(=O)(=O)c1cc2ccccc2o1 [Example 217, (2S)-1-(benzofuran-2-ylsulfonyl)-N-[1-[2-[4-(trifluoromethyl)phenyl]-4-pyridyl]cyclopropyl]-pyrrolidine-2-carboxamide]",64
7,"O=C(NCc1cccc(-c2cnc(C(F)(F)F)cn2)c1)[C@@H]1CCCN1S(=O)(=O)c1cc2ccccc2o1 [Example 196, (2S)-1-(benzofuran-2-ylsulfonyl)-N-[[3-[5-(trifluoromethyl)pyrazin-2-yl]phenyl]methyl]-pyrrolidine-2-carboxamide]",2.9

# Further lines, results first:
row,IC50 [nM],Compound
1,2.8,"O=C(NCc1cc(-c2ccc(OC(F)(F)F)cc2)ncn1)[C@@H]1CCCN1S(=O)(=O)c1cc2cnccc2o1 [Example 306, (2S)-1-furo[3,2-c]pyridin-2-ylsulfonyl-N-[[6-[4-(trifluoromethoxy)phenyl]pyrimidin-4-yl]methyl]pyrrolidine-2-carboxamide]"
2,350,"C[C@H](NS(=O)(=O)c1cc2cnccc2o1)C(=O)NCc1cc(-c2ccc(C(F)(F)F)cn2)ccn1 [Example 304, (2S)-2-(furo[3,2-c]pyridin-2-ylsulfonylamino)-N-[[4-[5-(trifluoromethyl)-2-pyridyl]-2-pyridyl]methyl]propanamide]"
3,12,"O=C(NCc1cc(-c2ccc(C(F)(F)F)cn2)ccn1)[C@@H]1c2ccccc2CN1S(=O)(=O)c1cc2cc(F)ccc2o1 (racemic) [Example 264, (rac)-2-(5-fluorobenzofuran-2-yl)sulfonyl-N-[[4-[5-(trifluoromethyl)-2-pyridyl]-2-pyridyl]methyl]isoindoline-1-carboxamide]"
4,30,"C[C@H](NS(=O)(=O)c1cc2cnccc2o1)C(=O)NCc1cc(-c2ccc(C(F)(F)F)cc2)ncn1 [Example 301, (2S)-2-(furo[3,2-c]pyridin-2-ylsulfonylamino)-N-[[6-[4-(trifluoromethyl)phenyl]pyrimidin-4-yl]methyl]propanamide]"
5,76,"Cc1ccc(-c2ccnc(CNC(=O)[C@@H]3CCCN3S(=O)(=O)c3cc4ccccc4o3)c2)cc1 [Example 284, (2S)-1-(benzofuran-2-ylsulfonyl)-N-[[4-(p-tolyl)-2-pyridyl]methyl]pyrrolidine-2-carboxamide]"
